Measured values from paper PMC7367283, “A PIP2 substitute mediates voltage sensor-pore coupling in KCNQ activation” (Communications Biology, 2020).

Target: T1, HCN4 (Homo sapiens, UniProt Q9Y3Q4)
T1 sequence (Q9Y3Q4 1-1203): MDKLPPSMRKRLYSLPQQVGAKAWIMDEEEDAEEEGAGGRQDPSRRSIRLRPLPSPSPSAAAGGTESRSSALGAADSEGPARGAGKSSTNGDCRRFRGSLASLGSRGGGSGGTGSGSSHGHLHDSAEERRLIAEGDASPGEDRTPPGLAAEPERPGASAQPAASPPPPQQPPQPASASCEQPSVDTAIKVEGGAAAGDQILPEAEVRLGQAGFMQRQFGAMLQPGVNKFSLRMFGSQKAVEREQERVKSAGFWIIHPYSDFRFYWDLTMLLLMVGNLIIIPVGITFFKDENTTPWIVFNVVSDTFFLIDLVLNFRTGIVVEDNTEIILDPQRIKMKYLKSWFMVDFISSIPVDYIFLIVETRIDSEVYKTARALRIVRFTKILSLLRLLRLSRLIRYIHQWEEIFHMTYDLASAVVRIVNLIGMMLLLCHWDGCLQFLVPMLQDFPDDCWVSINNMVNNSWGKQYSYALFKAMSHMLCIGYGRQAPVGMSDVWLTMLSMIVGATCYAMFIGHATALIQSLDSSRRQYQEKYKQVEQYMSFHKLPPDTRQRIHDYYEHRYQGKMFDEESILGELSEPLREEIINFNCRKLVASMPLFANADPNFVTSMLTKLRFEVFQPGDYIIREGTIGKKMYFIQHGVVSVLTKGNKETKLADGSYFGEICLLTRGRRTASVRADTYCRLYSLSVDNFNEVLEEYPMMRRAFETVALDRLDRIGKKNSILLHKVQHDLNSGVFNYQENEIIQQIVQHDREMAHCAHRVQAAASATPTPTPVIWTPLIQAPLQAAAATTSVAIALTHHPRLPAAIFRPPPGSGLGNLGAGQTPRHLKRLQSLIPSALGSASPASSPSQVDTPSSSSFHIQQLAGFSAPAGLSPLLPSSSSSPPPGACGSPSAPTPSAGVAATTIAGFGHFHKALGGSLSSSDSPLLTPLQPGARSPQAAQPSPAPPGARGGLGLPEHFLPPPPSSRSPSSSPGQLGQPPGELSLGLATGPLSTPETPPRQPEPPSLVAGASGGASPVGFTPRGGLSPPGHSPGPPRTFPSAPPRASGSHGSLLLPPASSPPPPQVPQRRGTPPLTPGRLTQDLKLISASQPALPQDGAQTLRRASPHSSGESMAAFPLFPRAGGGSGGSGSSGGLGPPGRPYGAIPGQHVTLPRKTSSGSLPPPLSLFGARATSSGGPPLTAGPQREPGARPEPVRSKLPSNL
Test: Two-electrode voltage clamp of HCN4 in Xenopus oocytes
Assay type: cell-based
Settings: 10 µM CP1
Text: Since CP1 has a similar effect to PIP2 in mediating VSD-pore coupling in KCNQ channels, we tested if CP1 has effects on other ion channels that are also sensitive to PIP2 or are voltage activated and share general structural features of the VSD and the pore with KCNQ. […] On the other hand, NaV1.5 and KV4.2 are voltage-gated ion channels.
Fig. 6 Effects of CP1 on other ion channels expressed in Xenopus oocytes. a Currents of Kir1.1, CaV1.2, NaV1.5, hERG, and KV4.2 before and after application of 10 µM CP1, respectively. The voltages for holding, test, and returning pulses were Kir1.1, 0 mV, −100 to +60 mV, 0; CaV1.2, −100 mV, −100 to +60, −100 mV; NaV1.5, −100, −120 to +40 mV, −120 mV; hERG, −80 mV, −90 to +60 mV, −60 mV; KV4.2, −80 mV, −100 mV to +80 mV, −40 mV; HCN4, −30 mV, −30 to −140 mV, −120 mV. b Current–voltage relations of Kir1.1 channel in the absence or presence of 10 µM CP1 (n = 7). c–g G–V relations of indicated channels with and without 10 µM CP1. The ΔV1/2 of G–V relations (mV) are CaV1.2, 3.38 ± 0.71 mV (c); NaV1.5, −2.26 ± 0.95 mV (d); hERG, 6.85 ± 1.81 mV (e); KV 4.2, −2.26 ± 2.88 mV (f); HCN4, 17.13 ± 1.59 mV (g).
Complementary DNA (cDNA) encoding human KCNQ1 (UniProtKB/Swiss‐Prot under accession no. P51787), KCNQ2 (O43526), KCNQ3 (O43525), KCNE1 (P15382), Kir1.1 (P48048), hERG (Q12809), KV4.2 (Q63881), NaV1.5 (Q14524), NaV β1 (Q07699), CaV1.2 (Q13936), CaV β1a (Q02641), CaV α2/δ1 (P54289), and HCN4 (Q9Y3Q4) were subcloned into oocyte expression vectors, respectively. Site-directed mutations of the KCNQ1 channel were all produced by overlap extension polymerase chain reaction (PCR) with high-fidelity Pfu polymerase (Stratagene, CA). The presence of the desired mutation was verified by sequencing the PCR-amplified regions. All the primer sequences used in this study are available in Supplementary Table 1. The complementary RNA (cRNA) of all these channels and mutations was transcribed in vitro with the T3, T7, or SP6 polymerase mMessage mMachine kit (Invitrogen, Thermo Fisher Scientific, MO).
The whole-oocyte ionic currents were recorded with a GeneClamp 500B amplifier (Axon Instruments, CA) or iTEV90 amplifier (HEKA, Germany) and then sampled at 1 kHz and low-pass-filtered at 2 kHz. The Patchmaster software (HEKA, Germany) was used to acquire data. The Kir1.1 current was recorded with a high K^+ bath solution containing (in mM) 96 KCl, 4 NaCl, 1 CaCl2, 2 MgCl2, and 10 HEPES, pH 7.3–7.4. The HCN4 current was recorded in ND66 solution containing (in mM) 66 NaCl, 32 KCl, 1.8 CaCl2, 1 MgCl2, and 5 HEPES, pH 7.6. All the other potassium channels were recorded in ND96 solution. The currents of CaV1.2 channel were recorded in 40 mM Ba^2+ bath solution containing (in mM) 40 Ba(OH)2, 50 TEA-OH, 2 KOH, and 5 HEPES, adjusted to pH 7.4 with methanesulfonic acid. CP1 (DISODIUM 5-BROMO-2-[9-CHLORO-3-(SULFONATOOXY) NAPHTHO [1,2-B] THIEN-2-YL]-1H-INDOL-3-YL SULFATE, Sigma-Aldrich, MO) and Chromanol 293B (Sigma-Aldrich, MO) were dissolved in bath solutions. All the chemicals were purchased from Sigma-Aldrich. To measure the I–V relations of the Kir1.1 channel, the test voltage was set from −100 to +60 mV for 1 s with 20-mV increments. The test pulses were stepped from a holding potential of 0 mV and then stepped back to 0 mV. The HCN4 currents were recorded by a test pulse between −30 and −140 mV in 10-mV step from a holding potential of −30 mV. For all the other potassium channels and CaV1.2 channel, the holding potential was −80 or −100 mV, and the test pulse was applied with 10-mV increment, which was followed with a repolarization pulse at −40 mV before returning to the holding potential. The durations of test and the repolarization pulse vary for different channels to allow the activation and deactivation of the channel to reach their steady states.

In the case of `O=S(=O)([O-])Oc1c(-c2sc3c(ccc4cccc(Cl)c43)c2OS(=O)(=O)[O-])[nH]c2ccc(Br)cc12.[Na+].[Na+]` [CP1, DISODIUM 5-BROMO-2-[9-CHLORO-3-(SULFONATOOXY) NAPHTHO [1,2-B] THIEN-2-YL]-1H-INDOL-3-YL SULFATE], the “ΔV1/2 of G–V relations” value is reported as 17.13 ± 1.59 mV, the “G/Gmax Mean (Fig. 6g)” value (voltage -30 mV) is reported as 0.0988 and the “G/Gmax Mean (Fig. 6g)” value (voltage -40 mV) is reported as 0.0945. The “G/Gmax Mean (Fig. 6g)” value (voltage -50 mV) was 0.1008, the “G/Gmax Mean (Fig. 6g)” value (voltage -60 mV) was 0.1162 and the “G/Gmax Mean (Fig. 6g)” value (voltage -70 mV) was 0.1464. For the same compound, the “G/Gmax Mean (Fig. 6g)” value (voltage -80 mV) was 0.2025, the “G/Gmax Mean (Fig. 6g)” value (voltage -90 mV) was 0.2959 and the “G/Gmax Mean (Fig. 6g)” value (voltage -100 mV) was 0.4355. The “G/Gmax Mean (Fig. 6g)” value (voltage -110 mV) was 0.6065, the “G/Gmax Mean (Fig. 6g)” value (voltage -120 mV) was 0.7756 and the “G/Gmax Mean (Fig. 6g)” value (voltage -130 mV) was 0.9097. The “G/Gmax Mean (Fig. 6g)” value (voltage -140 mV) was 1.0000.
